Experiment [1] deals with Sigma receptor (Cavia porcellus). As to the kind of experiment: Binding affinity against sigma sites in guinea pig membrane using [3H]DTG as the radioligand.
The target of experiment [2] is Sigma non-opioid intracellular receptor 1 (Cavia porcellus). Description: Binding affinity against sigma sites in guinea pig membrane using [3H](+)-3-PPP as the radioligand.

pIC50: −log10 of the molar value.

For `Clc1ccc(OCCN2C3CCC2c2c([nH]c4ccccc24)C3)cc1` (configuration not stated) [1-(4-chlorophenoxy)-2-[9,15-diazatetracyclo[10.2.1.02,10.03,8]pentadeca-2(10),3,5,7-tetraen-15-yl]ethane], the pIC50 was 6.60 in experiment [1] and 5.31 in experiment [2].

For `c1ccc(OCCN2C3CCC2c2c([nH]c4ccccc24)C3)cc1` (configuration not stated) [1-[9,15-diazatetracyclo[10.2.1.02,10.03,8]pentadeca-2(10),3,5,7-tetraen-15-yl]-2-phenoxyethane], the pIC50 in experiment [1] is 6.96; in experiment [2] it was 6.27.

Regarding `c1ccc(OCCCN2C3CCC2c2c([nH]c4ccccc24)C3)cc1` (configuration not stated) [1-[9,15-diazatetracyclo[10.2.1.02,10.03,8]pentadeca-2(10),3,5,7-tetraen-15-yl]-3-phenoxypropane], the pIC50 in experiment [1] is 6.88; in experiment [2], 6.58.

Consider `c1csc(CCCCN2C3CCC2c2c([nH]c4ccccc24)C3)c1` (configuration not stated) [1-[9,15-diazatetracyclo[10.2.1.02,10.03,8]pentadeca-2(10),3,5,7-tetraen-15-yl]-4-(2-thienyl)butane], for which the figures for the pIC50 in experiment [1] and in experiment [2] were 7.68 and 7.01, respectively.

`c1ccc(OCCCCN2C3CCC2c2c([nH]c4ccccc24)C3)cc1` (configuration not stated) [1-[9,15-diazatetracyclo[10.2.1.02,10.03,8]pentadeca-2(10),3,5,7-tetraen-15-yl]-4-phenoxybutane]: the pIC50 in experiment [1] was 7.06; in experiment [2] it was 6.69.

Take `c1ccc(CCCCCN2C3CCC2c2c([nH]c4ccccc24)C3)cc1` (configuration not stated) [1-[9,15-diazatetracyclo[10.2.1.02,10.03,8]pentadeca-2(10),3,5,7-tetraen-15-yl]-5-phenylpentane]: the pIC50 in experiment [1] is 6.97; in experiment [2], 6.46.

`c1ccc(CCCCN2C3CCC2c2c(n(Cc4ccccc4)c4ccccc24)C3)cc1` (configuration not stated) [1-[9-benzyl-9,15-diazatetracyclo[10.2.1.02,10.03,8]pentadeca-2(10),3,5,7-tetraen-15-yl]-4-phenylbutane]: the values for the pIC50 in experiment [1] and in experiment [2] were 6.57 and 6.40, respectively.

Take `CC(C)n1c2c(c3ccccc31)C1CCC(C2)N1CCCCc1ccccc1` (configuration not stated) [1-[9-isopropyl-9,15-diazatetracyclo[10.2.1.02,10.03,8]pentadeca-2(10),3,5,7-tetraen-15-yl]-4-phenylbutane]: the negative-log IC50 (pIC50) is 6.64 in experiment [1] and 6.15 in experiment [2].

`O=C1c2ccccc2C(=O)N1CCCN1C2CCC1c1c([nH]c3ccc(F)cc13)C2` (configuration not stated) [2-{3-[5-fluoro-9,15-diazatetracyclo[10.2.1.02,10.03,8]pentadeca-2(10),3,5,7-tetraen-15-yl]propyl}-1,3-isoindolinedione]: the pIC50 is 6.08 in experiment [1] and 5.48 in experiment [2].

`OCCCN1C2CCC1c1c([nH]c3ccc(F)cc13)C2` (configuration not stated) [3-[5-fluoro-9,15-diazatetracyclo[10.2.1.02,10.03,8]pentadeca-2(10),3,5,7-tetraen-15-yl]-1-propanol]: the pIC50 is 6.50 in experiment [1] and 5.86 in experiment [2].

As for `Fc1ccc2[nH]c3c(c2c1)C1CCC(C3)N1Cc1ccccc1` (configuration not stated) [15-benzyl-5-fluoro-9,15-diazatetracyclo[10.2.1.02,10.03,8]pentadeca-2(10),3,5,7-tetraene], the pIC50 in experiment [1] was 7.07; in experiment [2], 6.04.
